Earlier results as cited in patent US20210369631A1, “A LIPID-POLYMER HYBRID NANOPARTICLE” (NANOBRID INNOVATIONS PRIVATE LIMITED, priority 2019, published 2021).

| log P | SMILES |
| --- | --- |
| 1.44 | O=C(CCCCCCC(=O)Nc1ccccc1)NO [Vorinostat] |
| 3.49 | CCC(=O)O[C@]1(C(=O)CCl)[C@@H](C)C[C@H]2[C@@H]3CCC4=CC(=O)C=C[C@]4(C)[C@@]3(F)[C@@H](O)C[C@@]21C [clobetasol propionate] |
| 10 | COC1=C(OC)C(=O)C(C/C=C(\C)CC/C=C(\C)CC/C=C(\C)CC/C=C(\C)CC/C=C(\C)CC/C=C(\C)CC/C=C(\C)CC/C=C(\C)CC/C=C(\C)CCC=C(C)C)=C(C)C1=O [coenzyme Q10] |
